Some test systems named below: SK-MEL-5 melanoma; MDA-N; SK-MEL-28 melanoma; A549 NSCLC; NCI-H522 lung; SF-539 CNS; HS 578T breast; SK-OV-3 ovarian; SW-620 colon; PC-3 prostate; COLO 205 colon; HT29 colon; SNB-75 CNS; TK-10 renal; OVCAR-5 ovarian; UACC-257 melanoma; HOP-62 NSCLC; HCC-2998 colon; SNB-19 CNS; CAKI-1 renal.
Assay in all cases: growth of human tumour cells (NCI), 48 h

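In this assay, cells in 96-well plates receive the compound at five concentrations for 48 hours. Endpoints are linearly interpolated between the surrounding concentrations. TGI: total growth inhibition.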 Where only a bound is given, the exact number is not on record here.

Regarding `CC1Cc2c(Br)nc(N)nc2NC1=O` (centres undefined), the TGI in the assay with SK-MEL-5 melanoma, in the assay with MDA-N, with SK-MEL-28 melanoma, in the assay with A549 NSCLC, with NCI-H522 lung and with SF-539 CNS was > 100 µM throughout. Further, the TGI in the assay on HS 578T breast, in the assay on SK-OV-3 ovarian, in the assay on SW-620 colon, in the assay on PC-3 prostate, in the assay with COLO 205 colon and in the assay on HT29 colon was > 100 µM each time. The TGI with SNB-75 CNS, in the assay on TK-10 renal, in the assay on OVCAR-5 ovarian, in the assay with UACC-257 melanoma, with HOP-62 NSCLC and in the assay on HCC-2998 colon was > 100 µM each time. In addition, the TGI with SNB-19 CNS and in the assay with CAKI-1 renal was > 100 µM each time.
For `Cc1ccc([N+](=O)[O-])c2c(NCCNC(=O)Cn3ccnc3[N+](=O)[O-])ccnc12`, the TGI in the assay on SK-MEL-5 melanoma is > 100 µM; with MDA-N it was > 100 µM; in the assay on SK-MEL-28 melanoma, > 100 µM; in the assay on A549 NSCLC, > 100 µM; in the assay on NCI-H522 lung it was 38 µM; with SF-539 CNS, > 100 µM. Also, the TGI with HS 578T breast was > 100 µM; in the assay on SK-OV-3 ovarian it was 59.7 µM; in the assay with SW-620 colon, > 100 µM; in the assay on PC-3 prostate, > 100 µM; in the assay on COLO 205 colon, > 100 µM; in the assay on HT29 colon it was > 100 µM. Further, the TGI with SNB-75 CNS was > 100 µM; in the assay on TK-10 renal, > 100 µM; with OVCAR-5 ovarian, > 100 µM; in the assay on UACC-257 melanoma, 87.7 µM; in the assay with HOP-62 NSCLC, 48.7 µM; with HCC-2998 colon it was > 100 µM. Besides, the TGI in the assay with SNB-19 CNS and with CAKI-1 renal was > 100 µM throughout.
In the case of `Cc1ccccc1C1CC(=O)CC(c2ccccc2C)C12C(=O)NC(=O)NC2=O` (centres undefined), the TGI was > 100 µM in the assay with SK-MEL-5 melanoma; > 82.8 µM in the assay with MDA-N; > 100 µM with SK-MEL-28 melanoma; > 100 µM in the assay with A549 NSCLC; > 100 µM in the assay with NCI-H522 lung; > 100 µM with SF-539 CNS. Moreover, the TGI with HS 578T breast, in the assay with SK-OV-3 ovarian, with SW-620 colon, in the assay on PC-3 prostate, in the assay on COLO 205 colon and with HT29 colon was > 100 µM throughout. For the same compound, the TGI with SNB-75 CNS, with TK-10 renal, with OVCAR-5 ovarian, with UACC-257 melanoma, with HOP-62 NSCLC and in the assay with HCC-2998 colon was > 100 µM in each case. The TGI in the assay with SNB-19 CNS and with CAKI-1 renal was > 100 µM each time.
`O=[N+]([O-])C(Cl)C(Cl)C(Cl)=C(Cl)Cl` (centres undefined): the TGI was 24.4 µM with SK-MEL-5 melanoma; 40.6 µM with MDA-N; 39 µM with SK-MEL-28 melanoma; > 100 µM in the assay on A549 NSCLC; 38.4 µM with NCI-H522 lung; > 70 µM with SF-539 CNS. Also, the TGI in the assay on HS 578T breast was 67.5 µM; in the assay on SK-OV-3 ovarian, > 100 µM; in the assay with SW-620 colon, 38.3 µM; with PC-3 prostate, > 57.4 µM; with COLO 205 colon it was 34 µM; in the assay on HT29 colon it was 36.4 µM. For the same compound, the TGI in the assay with SNB-75 CNS is > 72.7 µM; in the assay with TK-10 renal, 39.4 µM; in the assay with OVCAR-5 ovarian, > 82.2 µM; in the assay on UACC-257 melanoma, 41.9 µM; in the assay with HOP-62 NSCLC, > 100 µM; with HCC-2998 colon, > 56.7 µM. Besides, the TGI in the assay on SNB-19 CNS was > 100 µM; in the assay on CAKI-1 renal it was 33.2 µM.
Take `COc1cc(/C=C2\C[C@H]3[C@@H]4CC=C5C[C@@H](O)CC[C@]5(C)[C@H]4CC[C@]3(C)[C@H]2O)cc(OC)c1OC`: the TGI with SK-MEL-5 melanoma is 21.5 µM; with MDA-N it was > 100 µM; in the assay on SK-MEL-28 melanoma it was > 100 µM; in the assay with A549 NSCLC it was > 100 µM; in the assay on NCI-H522 lung it was > 100 µM; in the assay with SF-539 CNS, > 100 µM. In addition, the TGI in the assay on HS 578T breast was > 100 µM; with SK-OV-3 ovarian it was > 100 µM; in the assay with SW-620 colon, > 100 µM; in the assay with PC-3 prostate it was 92.6 µM; in the assay on COLO 205 colon it was 42.2 µM; in the assay on HT29 colon, 27.6 µM. The TGI in the assay on SNB-75 CNS was 75.4 µM; in the assay on TK-10 renal, > 100 µM; in the assay with OVCAR-5 ovarian it was 61.9 µM; in the assay on UACC-257 melanoma, 83.1 µM; with HOP-62 NSCLC, 41.3 µM; in the assay on HCC-2998 colon, > 100 µM. The TGI with SNB-19 CNS and with CAKI-1 renal was > 100 µM throughout.
Take `COc1cc2cc(C(=O)N3CC(CCl)c4c3cc([N+](=O)[O-])c3ccccc43)[nH]c2c(OC)c1OC` (centres undefined): the TGI in the assay with SK-MEL-5 melanoma, in the assay on MDA-N, in the assay on SK-MEL-28 melanoma, in the assay on A549 NSCLC, in the assay with NCI-H522 lung and with SF-539 CNS was > 100 µM throughout. The TGI in the assay with HS 578T breast, in the assay with SK-OV-3 ovarian, in the assay on SW-620 colon, in the assay on PC-3 prostate, in the assay with COLO 205 colon and in the assay on HT29 colon was > 100 µM each time. Besides, the TGI in the assay on SNB-75 CNS, with TK-10 renal, in the assay with OVCAR-5 ovarian, with UACC-257 melanoma, in the assay with HOP-62 NSCLC and in the assay on HCC-2998 colon was > 100 µM throughout. Moreover, the TGI with SNB-19 CNS and in the assay with CAKI-1 renal was > 100 µM throughout.
Turning to `O=C(Nc1cc(C(=O)Nc2cccc(S(=O)(=O)O)c2)cc(C(=O)Nc2cccc(S(=O)(=O)O)c2)c1)c1cccc(C(=O)Nc2cc(C(=O)Nc3cccc(S(=O)(=O)O)c3)cc(C(=O)Nc3cccc(S(=O)(=O)O)c3)c2)c1`, the TGI in the assay on SK-MEL-5 melanoma, in the assay on MDA-N, with SK-MEL-28 melanoma, in the assay on A549 NSCLC, in the assay on NCI-H522 lung and in the assay on SF-539 CNS was > 100 µM in each case. Further, the TGI in the assay on HS 578T breast, with SK-OV-3 ovarian, in the assay with SW-620 colon, with PC-3 prostate, with COLO 205 colon and in the assay on HT29 colon was > 100 µM throughout. The TGI in the assay on SNB-75 CNS, in the assay with TK-10 renal, with OVCAR-5 ovarian, in the assay with UACC-257 melanoma, with HOP-62 NSCLC and with HCC-2998 colon was > 100 µM in each case. Besides, in the assay on CAKI-1 renal, the TGI was > 100 µM.
